# Legend:
# [1] = organism: Rattus norvegicus; test: Anti-inflammatory effect in rat granuloma assay, activity relative to hydrocortisone and hydrocortisone 21-acetate; type: functional
# [2] = organism: Homo sapiens; test: Potency relative to fluocinolone 16,17-acetonide in the human vasoconstictor test; type: functional
SMILES,Potency [1],Potency [2]
CC(=O)OCC(=O)[C@@]1(O)CCC2C3C[C@H](Cl)C4=CC(=O)CCC4(C)C3C(=O)CC21C (some centres undefined),1,–
C[C@@H]1C[C@H]2[C@@H]3CCC4=CC(=O)C=C[C@]4(C)[C@H]3[C@@H](O)C[C@]2(C)[C@@]1(O)C(=O)CO,11.3,–
C[C@H]1C[C@@H]2[C@H]([C@@H](O)C[C@@]3(C)[C@H]2CC[C@]3(O)C(=O)CO)[C@@]2(C)C=CC(=O)C=C12 (stereo in doubt; 68) [METHYLPREDNISOLONE],200,–
CC12CCC(=O)C=C1[C@@H](F)CC1C2C(O)CC2(C)C1C[C@@H](O)[C@]2(O)C(=O)CO (some centres undefined),5,–
CC(=O)OCC(=O)[C@@]1(O)CCC2C3CCC4=CC(=O)CCC4(C)[C@@]3(F)C(=O)CC21C (some centres undefined),10,–
CC1(C)O[C@@H]2CC3C4C[C@H](F)C5=CC(=O)CCC5(C)[C@@]4(F)C(O)CC3(C)[C@]2(C(=O)CO)O1 (some centres undefined),103,–
C[C@@H]1CC2(C)C(=CC1=O)CCC1C2C(=O)CC2(C)C1CC[C@]2(O)C(=O)CO (some centres undefined),<0.07,–
CC12C=CC(=O)C=C1CCC1C3CC[C@](O)(C(=O)CO)C3(C)CC(O)[C@@]12F (some centres undefined),17.7,–
CC(=O)OCC(=O)C1CCC2C3CCC4=CC(=O)[C@H](C)CC4(C)[C@@]3(F)C(O)CC12C (some centres undefined),2.4,–
C[C@@H]1CC2C3CCC4=CC(=O)C=CC4(C)C3C(=O)CC2(C)[C@@]1(O)C(=O)CO (some centres undefined),13,–
CC12CCC(=O)C=C1[C@@H](F)CC1C3C[C@@H](O)[C@](O)(C(=O)CO)C3(C)CC(O)[C@@]12F (some centres undefined),15,–
C[C@H]1CC2C3CCC4=CC(=O)CCC4(C)C3C(=O)CC2(C)[C@@]1(O)C(=O)CO (some centres undefined),2,–
C[C@@H]1CC2C3CCC4=CC(=O)C=CC4(C)[C@@]3(Cl)C(O)CC2(C)[C@@]1(O)C(=O)CO (some centres undefined),60,–
CC(=O)OCC(=O)C1CCC2C3CCC4=CC(=O)CCC4(C)C3C(O)CC12C (centres undefined),0.3,–
CC(=O)OCC(=O)C1CCC2C3CCC4=CC(=O)CCC4(C)C3C(O)=CC12C (centres undefined),0.2,–
CC(=O)OCC(=O)[C@@]1(O)CCC2C3C[C@H](F)C4=CC(=O)CCC4(C)C3C(O)CC21C (some centres undefined),10,–
CC(=O)OCC(=O)[C@@]1(O)CCC2C3C[C@H](Cl)C4=CC(=O)CCC4(C)[C@@]3(F)C(=O)CC21C (some centres undefined),8,–
CC(=O)OCC(=O)[C@@]1(O)CCC2C3CCC4=CC(=O)C=CC4(C)[C@@]3(Cl)[C@@H](Cl)CC21C (some centres undefined),0.5,–
CC(=O)OCC(=O)C1CCC2C3CCC4=CC(=O)[C@H](C)CC4(C)C3C(O)CC12C (some centres undefined),0.3,–
CC(=O)OCC(=O)[C@@]1(O)CC[C@H]2[C@@H]3CCC4=CC(=O)CC[C@]4(C)[C@H]3C(=O)C[C@@]21C [CORTISONE ACETATE],0.3,–
CC(=O)OCC(=O)[C@@]1(O)CCC2C3C[C@H](F)C4=CC(=O)C=CC4(C)C3C(O)CC21C (some centres undefined),20,–
C[C@@H]1CC2C3CCC4=CC(=O)CCC4(C)C3C(O)CC2(C)[C@@]1(O)C(=O)CO (some centres undefined),1.4,–
CC12C=CC(=O)C=C1[C@@H](Cl)CC1C2C(O)CC2(C)C1CC[C@]2(O)C(=O)CO (some centres undefined),14,–
CC(=O)OCC(=O)C1CCC2C3CCC4=CC(=O)[C@H](C)CC4(C)C3C(O)=CC12C (some centres undefined),<0.01,–
CC(=O)OCC(=O)[C@@]1(O)CC[C@H]2[C@@H]3CCC4=CC(=O)C=C[C@]4(C)[C@H]3C(=O)C[C@@]21C,1,–
CC(=O)OCC(=O)[C@@]1(O)CCC2C3C[C@H](F)C4=CC(=O)C=CC4(C)[C@@]3(F)C(O)CC21C (some centres undefined),200,–
CC(=O)OCC(=O)[C@@]1(O)CCC2C3C[C@H](F)C4=CC(=O)CCC4(C)[C@@]3(F)C(O)CC21C (some centres undefined),50,–

SMILES,Potency [1],Potency [2]
CC(=O)OCC(=O)[C@@]1(O)CCC2C3C[C@H](Cl)C4=CC(=O)CCC4(C)[C@@]3(F)C(O)CC21C (some centres undefined),11,–
CC(=O)OCC(=O)[C@@]1(O)CCC2C3C[C@H](Cl)C4=CC(=O)C=CC4(C)C3C(=O)CC21C (some centres undefined),4,–
CC(=O)OCC(=O)[C@@]1(O)[C@H](C)CC2C3C[C@H](F)C4=CC(=O)CCC4(C)[C@@]3(F)C(O)CC21C (some centres undefined),50,–
CC(=O)OCC(=O)[C@@]1(O)CCC2C3CCC4=CC(=O)CCC4(C)[C@@]3(Cl)C(O)CC21C (some centres undefined),3.5,–
C[C@H]1C[C@H]2[C@@H]3CCC4=CC(=O)C=C[C@]4(C)[C@H]3[C@@H](O)C[C@]2(C)[C@@]1(O)C(=O)CO,23,–
C[C@@H]1CC2C3CCC4=CC(=O)C=CC4(C)C3[C@@H](O)CC2(C)C1C(=O)CO (some centres undefined),3,–
C[C@@H]1CC2C3C[C@H](C)C4=CC(=O)C=CC4(C)[C@@]3(F)C(O)CC2(C)[C@@]1(O)C(=O)CO (some centres undefined),200,–
CC(=O)OCC(=O)[C@@]1(O)CCC2C3CCC4=CC(=O)C=CC4(C)[C@@]3(F)C(O)CC21C (some centres undefined),14,–
CC(=O)OCC(=O)[C@@]1(O)CCC2C3C[C@H](F)C4=CC(=O)CCC4(C)C3C(=O)CC21C (some centres undefined),10,–
C[C@H]1CC2C3CCC4=CC(=O)CCC4(C)[C@@]3(F)C(O)CC2(C)[C@@]1(O)C(=O)CO (some centres undefined),23,–
CC(=O)OCC(=O)[C@@]1(O)CCC2C3C[C@H](Cl)C4=CC(=O)CCC4(C)C3C(O)CC21C (some centres undefined),11,–
CC(=O)OCC(=O)[C@@]1(O)[C@H](C)CC2C3C[C@H](F)C4=CC(=O)C=CC4(C)[C@@]3(F)C(O)CC21C (some centres undefined),120,–
CC(=O)OCC(=O)[C@@]1(O)CCC2C3C[C@H](F)C4=CC(=O)C=CC4(C)C3C(=O)CC21C (some centres undefined),20,–
CC12CCC(=O)C=C1[C@@H](Cl)CC1C3CC(O)[C@](O)(C(=O)CO)C3(C)CC(O)[C@@]12F (some centres undefined),50,–
C[C@@H]1CC2C3CCC4=CC(=O)CCC4(C)[C@@]3(F)C(O)CC2(C)[C@@]1(O)C(=O)CO (some centres undefined),36,–
C[C@@H]1CC2C3CCC4=CC(=O)C=CC4(C)[C@@]3(F)C(O)=CC2(C)[C@@]1(O)C(=O)CO (some centres undefined),140,–
CC(=O)OCC(=O)[C@@]1(O)[C@H](C)CC2C3C[C@H](F)C4=CC(=O)CCC4(C)C3C(O)CC21C (some centres undefined),5,–
CC12C=CC(=O)C=C1[C@@H](Cl)CC1C3CC(O)[C@](O)(C(=O)CO)C3(C)CC(O)[C@@]12F (some centres undefined),400,–
C[C@H]1CC2C3CCC4=CC(=O)CCC4(C)C3C(O)CC2(C)[C@@]1(O)C(=O)CO (some centres undefined),4,–
CC(=O)OCC(=O)C1CCC2C3CCC4=CC(=O)CCC4(C)[C@@]3(F)C(O)CC12C (some centres undefined),2.7,–
C[C@H]1CC2C3CCC4=CC(=O)C=CC4(C)C3C(=O)CC2(C)[C@@]1(O)C(=O)CO (some centres undefined),26,–
CC(=O)OCC(=O)[C@@]1(O)CCC2C3C[C@H](Cl)C4=CC(=O)C=CC4(C)[C@@]3(F)C(O)CC21C (some centres undefined),27,–
C[C@]12CCC(=O)C=C1CC[C@@H]1[C@@H]2C(=O)C[C@@]2(C)[C@H]1CC[C@]2(O)C(=O)CO [CORTISONE],0.4,–
CCCC(=O)OCC(=O)[C@@]1(OC(=O)CCC)CC[C@H]2[C@@H]3C[C@H](F)C4=CC(=O)C=C[C@]4(C)[C@@]3(F)[C@@H](O)C[C@@]21C,–,540
CCCCC(=O)O[C@]1(C(=O)CCl)[C@@H](C)C[C@H]2[C@@H]3CCC4=CC(=O)C=C[C@]4(C)[C@@]3(F)[C@@H](O)C[C@@]21C,–,91
CC(=O)[C@@]1(O)CCC2C3CCC4=CC(=O)CCC4(C)C3C(O)CC21C (some centres undefined),–,0.4
CCCCC(=O)O[C@]1(C(=O)CO)CCC2C3CCC4=CC(=O)C=CC4(C)C3C(O)CC21C (some centres undefined),–,<1

# Reference: ChEMBL document CHEMBL1122453, “Structure-activity relationships in the antiinflammatory steroids: a pattern-recognition approach” (1983)
